# Experimental data: patent publication EP3046573B1, “AMYLIN ANALOGUES” (Zealand Pharma A/S, priority 2013, dated 2015)
# Read-outs that look alike come from different tables or passages of the source. Numbered stars: 1 amine (or outer) side, 2 acyl side, 3 side chain; on linkers, the order of the positions; unused ones are H or OH. Bridge positions count the residues as written; N and C are the ends. Square brackets hold non-standard residues; d marks the D form. Peptide text beside a SMILES is read from it. * marks the point of attachment. C20 diacid = O=C(O)CCCCCCCCCCCCCCCCCCC(=O)*; γGlu = O=C(O)[C@H](CCC(=O)[*:2])N[*:1]; NMeI = CC[C@H](C)[C@H](NC)C(=O)O; Sar = CNCC(=O)O
# How the values were obtained:
# [1] = Solubility assessment (turbidity absorbance at 325 nm); type: physicochemical; settings: stock 2 mg/ml diluted 1:1, ambient temperature (typically 25°C), n=1; for Solubility, Acetate buffer pH 4: 100 mM acetate buffer pH 4.0; for Solubility, Acetate buffer pH 5: 100 mM acetate buffer pH 5.0; for Solubility, Histidine buffer pH 6: 100 mM histidine buffer pH 6.0; for Solubility, Histidine buffer pH 7: 100 mM histidine buffer pH 7.0; for Solubility, Phosphate buffer pH 6: 100 mM phosphate buffer pH 6.0; for Solubility, Phosphate buffer pH 7: 100 mM phosphate buffer pH 7.0; for Solubility, Phosphate buffer pH 7.5: 100 mM phosphate buffer pH7.5
# In short: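 Read-out: turbidity as absorbance at 325 nm (280 nm also read), single samples, ambient temperature of typically 25°C. Samples were a 1:1 mix of 2 mg/ml stock (water, pH 2.5) with 100 mM acetate, histidine or phosphate buffers spanning pH 4.0–7.5. Cut-off: A325 ≤ 0.02 indicates ≥ 1 mg/ml.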
# [2] = biological target: T1, human calcitonin receptor (hCTR2) (Homo sapiens, UniProt P30988); test: hCTR2 assay: induction of cAMP (AlphaScreen cAMP Assay kit) in COS7 cells expressing hCTR2; type: cell-based
# T1 construct: expressed in transfected cells
# T1 sequence (P30988 25-474): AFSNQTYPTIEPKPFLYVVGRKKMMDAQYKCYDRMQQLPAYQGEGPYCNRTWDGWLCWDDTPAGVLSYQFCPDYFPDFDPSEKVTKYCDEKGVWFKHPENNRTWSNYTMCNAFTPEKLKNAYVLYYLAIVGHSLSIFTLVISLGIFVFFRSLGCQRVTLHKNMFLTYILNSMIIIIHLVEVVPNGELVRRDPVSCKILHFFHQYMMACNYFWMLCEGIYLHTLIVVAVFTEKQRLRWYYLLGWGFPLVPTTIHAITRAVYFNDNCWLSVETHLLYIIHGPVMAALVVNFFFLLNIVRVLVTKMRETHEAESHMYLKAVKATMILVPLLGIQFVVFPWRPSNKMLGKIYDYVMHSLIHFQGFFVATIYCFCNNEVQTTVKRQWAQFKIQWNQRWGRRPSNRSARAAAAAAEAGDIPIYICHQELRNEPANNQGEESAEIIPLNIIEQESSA
# In short: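 Cells were seeded one day ahead, washed, then exposed to rising peptide concentrations for 15 min at 37° C in the presence of 100 µM IBMX. After lysis for 10 min at room temperature, cAMP was quantified by AlphaScreen and EC50 values derived by 4PL fitting.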
# [3] = biological target: T2, human amylin receptor 3 (hAMYR3) consisting of hCTR2 co-expressed with human Receptor Activity Modifying Protein 3 (hRAMP3) (Homo sapiens, UniProt O60896+P30988); test: hAMYR3 assay: induction of cAMP (AlphaScreen cAMP Assay kit) in COS7 cells expressing hAMYR3; type: cell-based; settings: cAMP induction in COS7 cells expressing hAMYR3; average of a minimum of 3 determinations; read-out: hAMY R3 EC50
# T2 construct: expressed in transfected cells
# T2 sequence (P30988 25-474): T1 sequence (P30988 25-474)
# T2 sequence (O60896 24-148 partner): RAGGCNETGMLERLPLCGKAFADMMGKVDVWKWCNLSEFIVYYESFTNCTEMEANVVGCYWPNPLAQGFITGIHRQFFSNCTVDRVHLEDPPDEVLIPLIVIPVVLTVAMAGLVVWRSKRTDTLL
# In short: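 cAMP accumulation read by AlphaScreen in lysates of RAMP-naive COS7 cells stably transfected with hCTR2 plus hRAMP3. Cells exposed to peptide dilutions for 15 min, 37° C, with 100 µM IBMX; 4PL fitting gave EC50 and efficacy relative to pramlintide.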
# [4] = cAMP induction in COS7 cells expressing hCTR2, average of a minimum of 3 determinations, read-out: hCTR2 EC50
Compound,"Solubility, Acetate buffer pH 4 [1]","Solubility, Acetate buffer pH 5 [1]","Solubility, Histidine buffer pH 6 [1]","Solubility, Histidine buffer pH 7 [1]","Solubility, Phosphate buffer pH 6 [1]","Solubility, Phosphate buffer pH 7 [1]","Solubility, Phosphate buffer pH 7.5 [1]",EC50 [2],EC50 [3],"EC50 [2, 4]"
"CC[C@H](C)[C@@H](C(=O)N[C@@H](CC(C)C)C(=O)N[C@@H](CO)C(=O)N[C@@H](CO)C(=O)N[C@H](C(=O)N[C@@H](CCC(=O)O)C(=O)N[C@H](C(=O)NCC(=O)N[C@@H](CO)C(=O)N[C@@H](CCC(=O)O)C(=O)N[C@H](C(=O)N1CCC[C@H]1C(N)=O)[C@@H](C)O)C(C)C)[C@@H](C)O)N(C)C(=O)[C@H](C)NC(=O)CN(C)C(=O)[C@H](Cc1ccccc1)NC(=O)[C@H](CO)NC(=O)[C@H](CO)NC(=O)[C@H](CO)NC(=O)[C@H](CO)NC(=O)[C@H](CCCNC(=N)N)NC(=O)[C@H](Cc1c[nH]cn1)NC(=O)[C@H](CC(C)C)NC(=O)[C@H](Cc1ccccc1)NC(=O)[C@H](CCC(=O)O)NC(=O)[C@H](C)NC(=O)[C@H](CC(C)C)NC(=O)[C@H](CCCNC(=N)N)NC(=O)[C@H](CC(=O)O)NC(=O)[C@@H](NC(=O)[C@H](C)NC(=O)[C@@H]1CSSC[C@H](NC(=O)[C@H](CCCNC(=N)N)NC(=O)CC[C@H](NC(=O)CCCCCCCCCCCCCCCCCCC(=O)O)C(=O)O)C(=O)N[C@@H](CC(=O)O)C(=O)N[C@@H]([C@@H](C)O)C(=O)N[C@@H](C)C(=O)N[C@@H]([C@@H](C)O)C(=O)N1)[C@@H](C)O [Compound 149, [19CD]-isoGlu-RC()DTATC()ATDRLAEFLHRSSSSF-Gly(Me)-A-Ile(Me)-LSSTEVGSETP-NH2] ({C20 diacid-γGlu}-RCDTATCATDRLAEFLHRSSSSF[Sar]A[NMeI]LSSTEVGSETP-NH2; disulfide 2-7)",SS (SS indicates solubility ≥ 1mg/ml),SS (SS indicates solubility ≥ 1mg/ml),SS (SS indicates solubility ≥ 1mg/ml),SS (SS indicates solubility ≥ 1mg/ml),SS (SS indicates solubility ≥ 1mg/ml),SS (SS indicates solubility ≥ 1mg/ml),SS (SS indicates solubility ≥ 1mg/ml),160 pM,260 pM,
"CC[C@H](C)[C@@H](C(=O)N[C@@H](CC(C)C)C(=O)N[C@@H](CO)C(=O)N[C@@H](CO)C(=O)N[C@H](C(=O)N[C@@H](CCC(=O)O)C(=O)N[C@H](C(=O)NCC(=O)N[C@@H](CO)C(=O)N[C@@H](CCC(=O)O)C(=O)N[C@H](C(=O)N1CCC[C@H]1C(N)=O)[C@@H](C)O)C(C)C)[C@@H](C)O)N(C)C(=O)[C@H](C)NC(=O)CN(C)C(=O)[C@H](Cc1ccccc1)NC(=O)[C@H](CO)NC(=O)[C@H](CO)NC(=O)[C@H](CO)NC(=O)[C@H](CO)NC(=O)[C@H](CCCNC(=N)N)NC(=O)[C@H](Cc1c[nH]cn1)NC(=O)[C@H](CC(C)C)NC(=O)[C@H](Cc1ccccc1)NC(=O)[C@H](CCC(=O)O)NC(=O)[C@H](C)NC(=O)[C@H](CC(C)C)NC(=O)[C@H](CCCNC(=N)N)NC(=O)[C@H](C)NC(=O)[C@@H](NC(=O)[C@H](C)NC(=O)[C@@H]1CSSC[C@H](NC(=O)[C@H](CCCNC(=N)N)NC(=O)CC[C@H](NC(=O)CCCCCCCCCCCCCCCCCCC(=O)O)C(=O)O)C(=O)N[C@@H](CO)C(=O)N[C@@H]([C@@H](C)O)C(=O)N[C@@H](C)C(=O)N[C@@H]([C@@H](C)O)C(=O)N1)[C@@H](C)O [Compound 144, [19CD]-isoGlu-RC()STATC()ATARLAEFLHRSSSSF-Gly(Me)-A-Ile(Me)-LSSTEVGSETP-NH2] ({C20 diacid-γGlu}-RCSTATCATARLAEFLHRSSSSF[Sar]A[NMeI]LSSTEVGSETP-NH2; disulfide 2-7)",SS (SS indicates solubility ≥ 1mg/ml),SS (SS indicates solubility ≥ 1mg/ml),SS (SS indicates solubility ≥ 1mg/ml),SS (SS indicates solubility ≥ 1mg/ml),SS (SS indicates solubility ≥ 1mg/ml),SS (SS indicates solubility ≥ 1mg/ml),SS (SS indicates solubility ≥ 1mg/ml),,240 pM,110 pM
"CC[C@H](C)[C@@H](C(=O)N[C@@H](CC(C)C)C(=O)N[C@@H](CO)C(=O)N[C@@H](CO)C(=O)N[C@H](C(=O)N[C@@H](CC(N)=O)C(=O)N[C@H](C(=O)NCC(=O)N[C@@H](CO)C(=O)N[C@@H](CC(N)=O)C(=O)N[C@H](C(=O)N[C@@H](Cc1ccc(O)cc1)C(=O)NC)[C@@H](C)O)C(C)C)[C@@H](C)O)N(C)C(=O)CN(C)C(=O)[C@H](Cc1ccccc1)NC(=O)[C@H](CC(N)=O)NC(=O)[C@H](CC(N)=O)NC(=O)[C@H](CO)NC(=O)[C@H](CO)NC(=O)[C@H](CCCNC(=N)N)NC(=O)[C@H](Cc1c[nH]cn1)NC(=O)[C@H](CC(C)C)NC(=O)[C@H](Cc1ccccc1)NC(=O)[C@H](CCC(=O)O)NC(=O)[C@H](C)NC(=O)[C@H](CC(C)C)NC(=O)[C@H](CCCNC(=N)N)NC(=O)[C@H](CCC(N)=O)NC(=O)[C@@H](NC(=O)[C@H](C)NC(=O)[C@@H]1CSSC[C@H](NC(=O)[C@H](CCCNC(=N)N)NC(=O)CC[C@H](NC(=O)CCCCCCCCCCCCCCCCCCC(=O)O)C(=O)O)C(=O)N[C@@H](CC(N)=O)C(=O)N[C@@H]([C@@H](C)O)C(=O)N[C@@H](C)C(=O)N[C@@H]([C@@H](C)O)C(=O)N1)[C@@H](C)O [Compound 155, [19CD]-isoGlu-RC()NTATC()ATQRLAEFLHRSSNNF-Gly(Me)-Ile(Me)-LSSTNVGSNTY-NHMe] ({C20 diacid-γGlu}-RCNTATCATQRLAEFLHRSSNNF[Sar][NMeI]LSSTNVGSNTY-NHMe; disulfide 2-7)",SS (SS indicates solubility ≥ 1mg/ml),SS (SS indicates solubility ≥ 1mg/ml),II (II indicates solubility ≤ 1 mg/ml),II (II indicates solubility ≤ 1 mg/ml),II (II indicates solubility ≤ 1 mg/ml),II (II indicates solubility ≤ 1 mg/ml),II (II indicates solubility ≤ 1 mg/ml),,5300 pM,670 pM
"CC[C@H](C)[C@@H](C(=O)N[C@@H](CC(C)C)C(=O)N[C@@H](CO)C(=O)N[C@@H](CO)C(=O)N[C@H](C(=O)N[C@@H](CCC(=O)O)C(=O)N[C@H](C(=O)NCC(=O)N[C@@H](CO)C(=O)N[C@@H](CCC(=O)O)C(=O)N[C@H](C(=O)N1CCC[C@H]1C(N)=O)[C@@H](C)O)C(C)C)[C@@H](C)O)N(C)C(=O)[C@H](C)NC(=O)CN(C)C(=O)[C@H](Cc1ccccc1)NC(=O)[C@H](CO)NC(=O)[C@H](CO)NC(=O)[C@H](CO)NC(=O)[C@H](CO)NC(=O)[C@H](CCCNC(=N)N)NC(=O)[C@H](Cc1c[nH]cn1)NC(=O)[C@H](CC(C)C)NC(=O)[C@H](Cc1ccccc1)NC(=O)[C@H](CCC(=O)O)NC(=O)[C@H](C)NC(=O)[C@H](CC(C)C)NC(=O)[C@H](CCCNC(=N)N)NC(=O)[C@H](CC(=O)O)NC(=O)[C@@H](NC(=O)[C@H](C)NC(=O)[C@@H]1CSSC[C@H](NC(=O)[C@H](CCCNC(=N)N)NC(=O)CC[C@H](NC(=O)CCCCCCCCCCCCCCCCCCC(=O)O)C(=O)O)C(=O)N[C@@H](CCC(=O)O)C(=O)N[C@@H]([C@@H](C)O)C(=O)N[C@@H](C)C(=O)N[C@@H]([C@@H](C)O)C(=O)N1)[C@@H](C)O [Compound 150, [19CD]-isoGlu-RC()ETATC()ATDRLAEFLHRSSSSF-Gly(Me)-A-Ile(Me)-LSSTEVGSETP-NH2] ({C20 diacid-γGlu}-RCETATCATDRLAEFLHRSSSSF[Sar]A[NMeI]LSSTEVGSETP-NH2; disulfide 2-7)",SS (SS indicates solubility ≥ 1mg/ml),SS (SS indicates solubility ≥ 1mg/ml),SS (SS indicates solubility ≥ 1mg/ml),SS (SS indicates solubility ≥ 1mg/ml),SS (SS indicates solubility ≥ 1mg/ml),SS (SS indicates solubility ≥ 1mg/ml),SS (SS indicates solubility ≥ 1mg/ml),160 pM,260 pM,
